Source: the supplement of paper PMC10307832

Assays:
Assay in all cases: relative viability (nuclei count vs DMSO), 5 days (fraction); higher = more cells survive
AZ505 + AZD7762 = compound: C1CCC(CC1)N(CCNCCC2=C3C(=C(C=C2)O)NC(=O)CO3)C(=O)CCNCCC4=CC(=C(C=C4)Cl)Cl [AZ505] + NC(=O)Nc1cc(-c2cccc(F)c2)sc1C(=O)N[C@H]1CCCNC1 [AZD7762] (partner 0.2 µM)
Outline: (§1)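 After 5 days of treatment, lung cancer cells in 1536-well plates were fixed and stained in a single step (final 0.05% Triton X-100, 1% formaldehyde, 1 ug/ml Hoechst) and their nuclei counted on 4× images. Treatment had been applied by pin tool the day after seeding as one drug alone or as a fixed anchor-drug dose with five library-drug doses (not always all listed) in √10 steps. Relative viability is the nuclei count of treated wells divided by that of vehicle wells, and values are medians of duplicate plates.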

AZ505 + Tozasertib = compound: C1CCC(CC1)N(CCNCCC2=C3C(=C(C=C2)O)NC(=O)CO3)C(=O)CCNCCC4=CC(=C(C=C4)Cl)Cl [AZ505] + Cc1cc(Nc2cc(N3CCN(C)CC3)nc(Sc3ccc(NC(=O)C4CC4)cc3)n2)n[nH]1 [Tozasertib] (partner 0.1 µM)
Outline: as §1

AZ505 + Pemetrexed = compound: C1CCC(CC1)N(CCNCCC2=C3C(=C(C=C2)O)NC(=O)CO3)C(=O)CCNCCC4=CC(=C(C=C4)Cl)Cl [AZ505] + Nc1nc2[nH]cc(CCc3ccc(C(=O)N[C@@H](CCC(=O)O)C(=O)O)cc3)c2c(=O)[nH]1 [Pemetrexed] (partner 0.2 µM)
Outline: as §1

Dactolisib + Phenformin = compound: Cn1c(=O)n(-c2ccc(C(C)(C)C#N)cc2)c2c3cc(-c4cnc5ccccc5c4)ccc3ncc21 [Dactolisib] + N=C(N)NC(=N)NCCc1ccccc1 [Phenformin] (partner 250 µM)
Outline: as §1

| Cell Line | relative viability (AZ505 + AZD7762; first compound 0.08 µM) | relative viability (AZ505 + AZD7762; first compound 0.253 µM) | relative viability (AZ505 + AZD7762; first compound 0.8 µM) | relative viability (AZ505 + AZD7762; first compound 2.53 µM) | relative viability (AZ505 + AZD7762; first compound 8 µM) | relative viability (AZ505 + Tozasertib; first compound 0.08 µM) | relative viability (AZ505 + Tozasertib; first compound 0.253 µM) | relative viability (AZ505 + Tozasertib; first compound 0.8 µM) | relative viability (AZ505 + Tozasertib; first compound 2.53 µM) | relative viability (AZ505 + Tozasertib; first compound 8 µM) | relative viability (AZ505 + Pemetrexed; first compound 0.08 µM) | relative viability (AZ505 + Pemetrexed; first compound 0.253 µM) | relative viability (AZ505 + Pemetrexed; first compound 0.8 µM) | relative viability (AZ505 + Pemetrexed; first compound 2.53 µM) | relative viability (AZ505 + Pemetrexed; first compound 8 µM) | relative viability (Dactolisib + Phenformin; first compound 0.002 µM) | relative viability (Dactolisib + Phenformin; first compound 0.006325 µM) | relative viability (Dactolisib + Phenformin; first compound 0.02 µM) | relative viability (Dactolisib + Phenformin; first compound 0.06325 µM) | relative viability (Dactolisib + Phenformin; first compound 0.2 µM) |
| --- | --- | --- | --- | --- | --- | --- | --- | --- | --- | --- | --- | --- | --- | --- | --- | --- | --- | --- | --- | --- |
| HCC-366 | 0.357 | 0.215 | 0.281 | 0.151 | 0.247 | 0.128 | 0.113 | 0.152 | 0.132 | 0.0879 | 0.142 | 0.174 | 0.179 | 0.2 | 0.16 | 0.602 | 0.625 | 0.587 | 0.397 | 0.151 |
| HCC-827 | 0.25 | 0.163 | 0.49 | 0.204 | 0.263 | 0.421 | 0.426 | 0.448 | 0.436 | 0.447 | 0.288 | 0.269 | 0.288 | 0.264 | 0.266 | 0.394 | 0.392 | 0.396 | 0.382 | 0.393 |
| HOP-62 | 0.43 | 0.328 | 0.682 | 0.63 | 0.669 | 0.386 | 0.436 | 0.385 | 0.427 | 0.383 | 0.325 | 0.443 | 0.327 | 0.393 | 0.379 | 0.736 | 0.654 | 0.655 | 0.405 | 0.356 |
| LC-2-ad | 0.801 | 0.821 | 0.867 | 0.847 | 0.832 | 0.478 | 0.415 | 0.436 | 0.411 | 0.413 | 0.279 | 0.278 | 0.294 | 0.306 | 0.258 | 0.601 | 0.572 | 0.539 | 0.42 | 0.391 |
| LCLC-97TM1 | 0.427 | 0.111 | 0.301 | 0.317 | 0.354 | 0.218 | 0.196 | 0.214 | 0.316 | 0.302 | 0.161 | 0.253 | 0.193 | – | 0.175 | 0.452 | 0.444 | 0.42 | 0.317 | 0.179 |
| LCLC-103H | 0.711 | 0.719 | 0.665 | 0.647 | 0.718 | 0.508 | 0.504 | 0.434 | 0.461 | 0.459 | 0.453 | 0.491 | 0.457 | 0.519 | 0.448 | 0.369 | 0.321 | 0.345 | 0.317 | 0.291 |
| NCI-H520 | – | – | – | – | – | 0.441 | 0.389 | 0.44 | 0.469 | 0.463 | 0.483 | 0.684 | 0.777 | 0.81 | 0.875 | 0.529 | 0.534 | 0.369 | 0.202 | 0.217 |
| NCI-H661 | – | – | – | – | – | 0.356 | 0.377 | 0.351 | 0.32 | 0.367 | 0.834 | 0.928 | 0.865 | 0.931 | 0.928 | 0.254 | 0.278 | 0.292 | 0.216 | 0.265 |
| NCI-H727 | 0.661 | 0.418 | 0.582 | 0.512 | 0.76 | 0.645 | 0.53 | 0.525 | – | 0.581 | – | – | – | – | – | 0.653 | 0.588 | 0.528 | 0.359 | 0.309 |
